Values belong to the compound of their own block, whether it stands above or below them.
Experiments:
FGFR2 = FGFR2 (Homo sapiens (Human), UniProt P21802); experiment: Biochemical FGFR2 Caliper assay
SNU-16 = experiment: Cell SNU-16 assay; assay type: cell-based
[1] = Homo sapiens, SNU-16, SNU-16 cells

Chain of FGFR2 (P21802 22-821): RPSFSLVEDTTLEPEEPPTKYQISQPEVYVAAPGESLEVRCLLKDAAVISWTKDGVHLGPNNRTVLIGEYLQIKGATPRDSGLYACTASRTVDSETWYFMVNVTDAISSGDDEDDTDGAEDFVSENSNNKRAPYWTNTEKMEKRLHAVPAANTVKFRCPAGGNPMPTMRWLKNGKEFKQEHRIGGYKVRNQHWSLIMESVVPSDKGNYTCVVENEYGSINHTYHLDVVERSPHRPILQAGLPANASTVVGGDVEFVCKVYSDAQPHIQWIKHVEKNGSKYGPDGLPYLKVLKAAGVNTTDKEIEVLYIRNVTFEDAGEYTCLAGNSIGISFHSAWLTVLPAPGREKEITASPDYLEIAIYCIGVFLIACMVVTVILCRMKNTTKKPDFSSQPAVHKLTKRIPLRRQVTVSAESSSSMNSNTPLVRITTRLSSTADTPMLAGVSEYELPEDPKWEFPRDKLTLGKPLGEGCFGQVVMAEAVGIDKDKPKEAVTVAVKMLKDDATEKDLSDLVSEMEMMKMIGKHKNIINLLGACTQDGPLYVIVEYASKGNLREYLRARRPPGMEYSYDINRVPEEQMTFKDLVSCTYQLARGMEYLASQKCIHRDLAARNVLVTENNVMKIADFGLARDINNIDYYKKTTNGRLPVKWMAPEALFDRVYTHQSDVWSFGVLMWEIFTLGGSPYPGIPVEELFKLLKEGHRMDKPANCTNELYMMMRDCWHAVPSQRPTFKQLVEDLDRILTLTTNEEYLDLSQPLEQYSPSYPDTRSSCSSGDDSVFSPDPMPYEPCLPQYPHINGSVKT

- IC50 (FGFR2): 1000 to 100000 nM
- IC50 (SNU-16; [1]): 1000 to 100000 nM
Compound: C#Cc1cnc2cc(-c3c(-c4ccc(Oc5nccc(C)n5)c(F)c4)c4c(N)ncnc4n3C)ccc2c1 [Example 1425]

- IC50 (FGFR2): < 100 nM
- IC50 (SNU-16; [1]): ≤ 100 nM
Compound: C#Cc1nc2cc(-c3c(-c4ccc(Oc5nccc(C)n5)c(F)c4)c4c(N)ncnc4n3C)c(OC)cc2n1C [Example 1426]

- IC50 (FGFR2): < 100 nM
- IC50 (SNU-16; [1]): ≤ 100 nM
Compound: COCC#Cc1ccc2cc(-c3c(-c4ccc(Oc5nccc(C)n5)c(F)c4)c4c(N)ncnc4n3C)ccc2n1 [Example 1427]

- IC50 (FGFR2): < 100 nM
- IC50 (SNU-16; [1]): ≤ 100 nM
Compound: C#Cc1cnc2cc(-c3c(-c4ccc(Oc5nccc(C)n5)c(F)c4)c4c(N)ncnc4n3C)c(C)cc2n1 [Example 1428]

- IC50 (FGFR2): < 100 nM
- IC50 (SNU-16; [1]): ≤ 100 nM
Compound: C#Cc1ccc2cc(-c3c(-c4ccc(Oc5nccc(C)n5)c(F)c4)c4c(N)ncnc4n3C)cnc2n1 [Example 1429]

- IC50 (FGFR2): < 100 nM
- IC50 (SNU-16; [1]): ≤ 100 nM
Compound: COCC#Cc1cc(OC)c(-c2c(-c3ccc(Oc4nccc(C)n4)c(F)c3)c3c(C)ncnc3n2C)cn1 [Example 1430]

- IC50 (FGFR2): < 100 nM
- IC50 (SNU-16; [1]): ≤ 100 nM
Compound: [2H]C#Cc1cc(C)c(-c2c(-c3ccc(Oc4nccc(C)n4)c(F)c3)c3c(N)ncnc3n2C)cn1 [Example 1431]

- IC50 (FGFR2): 1000 to 100000 nM
- IC50 (SNU-16; [1]): 1000 to 100000 nM
Compound: C#Cc1cc(C)c(-c2c(-c3ccc(Oc4nccc(C)n4)c(F)c3)c3c(C(F)F)ncnc3n2C)cn1 [Example 1432]

- IC50 (FGFR2): < 100 nM
- IC50 (SNU-16; [1]): ≤ 100 nM
Compound: C#Cc1cc(OC)c(-c2c(-c3ccc(Oc4nccc(C)n4)c(F)c3)c3c(N)ncnc3n2C)cn1 [Example 1433]

- IC50 (FGFR2): < 100 nM
- IC50 (SNU-16; [1]): ≤ 100 nM
Compound: C#Cc1nc2cc(-c3c(-c4ccc(Oc5nccc(C)n5)c(F)c4)c4c(N)ncnc4n3C)c(C)cc2n1C [Example 1434]

- IC50 (FGFR2): 1000 to 100000 nM
- IC50 (SNU-16; [1]): 1000 to 100000 nM
Compound: C=C(C)C(=O)Nc1ccc(-c2c(-c3ccc(OCc4ccccc4)c(F)c3)c3c(N)ncnc3n2C)cc1 [Example 1435]

- IC50 (FGFR2): 1000 to 100000 nM
- IC50 (SNU-16; [1]): 1000 to 100000 nM
Compound: C=C(C)C(=O)Nc1ccc(-c2c(-c3ccc(OCc4ccccn4)c(F)c3)c3c(N)ncnc3n2C)cc1 [Example 1436]

- IC50 (FGFR2): 250 to 1000 nM
- IC50 (SNU-16; [1]): 1000 to 100000 nM
Compound: C=C(C)C(=O)Nc1ccc(-c2c(-c3ccc(O)c(F)c3)c3c(N)ncnc3n2C)cc1 [Example 1437]

- IC50 (FGFR2): < 100 nM
- IC50 (SNU-16; [1]): ≤ 100 nM
Compound: C#Cc1nc(C)c(-c2c(-c3ccc(Oc4nccc(C)n4)c(F)c3)c3c(N)ncnc3n2C)c(C)n1 [Example 1438]

- IC50 (FGFR2): < 100 nM
- IC50 (SNU-16; SNU-16 cells): ≤ 100 nM
Compound: C#Cc1cc(C)c(-c2c(-c3ccc(Oc4nccc(C)n4)c(F)c3)c3c(N)ncnc3n2C)cn1 [Example 1439]

- IC50 (FGFR2): < 100 nM
- IC50 (SNU-16; [1]): ≤ 100 nM
Compound: C#Cc1cc2c(cn1)-c1c(-c3ccc(Oc4nccc(C)n4)c(F)c3)c3c(N)ncnc3n1CCO2 [Example 1440]

- IC50 (FGFR2): 250 to 1000 nM
- IC50 (SNU-16; [1]): 100 to 250 nM
Compound: C#Cc1cc2c(cn1)-c1c(-c3ccc(Oc4nccc(C)n4)c(F)c3)c3c(N)ncnc3n1[C@H](C)CO2 [Example 1441]

The next lines start with the compound.

Compound: C#Cc1cnc2cc(-c3c(-c4ccc(Oc5nccc(C)n5)c(F)c4)c4c(C)ncnc4n3C)ccc2n1 [Example 1408]
- IC50 (FGFR2): < 100 nM
- IC50 (SNU-16; [1]): 100 to 250 nM

Compound: C#Cc1ncc2cc(-c3c(-c4ccc(Oc5nccc(C)n5)c(F)c4)c4c(N)ncnc4n3C)n(C)c2n1 [Example 1411]
- IC50 (FGFR2): < 100 nM
- IC50 (SNU-16; [1]): ≤ 100 nM

Compound: C#Cc1ccc2ccc(-c3c(-c4ccc(Oc5nccc(C)n5)c(F)c4)c4c(N)ncnc4n3C)cc2n1 [Example 1412]
- IC50 (FGFR2): 250 to 1000 nM
- IC50 (SNU-16; [1]): 250 to 1000 nM

Compound: C#Cc1cnc2c(cc(-c3c(-c4ccc(Oc5nccc(C)n5)c(F)c4)c4c(N)ncnc4n3C)n2C)n1 [Example 1413]
- IC50 (FGFR2): < 100 nM
- IC50 (SNU-16; [1]): ≤ 100 nM

Compound: C#Cc1cc(C)c(-c2c(-c3ccc(Oc4nccc(C)n4)c(F)c3)c3c(Cl)ncnc3n2C)c(F)n1 [Example 1416]
- IC50 (FGFR2): < 100 nM
- IC50 (SNU-16; SNU-16 cells): 100 to 250 nM

Compound: C#Cc1cc(C)c(-c2c(-c3ccc(Oc4nccc(C)n4)c(F)c3)c3c(Cl)ncnc3n2C)c(F)n1 [Example 1417]
- IC50 (FGFR2): < 100 nM
- IC50 (SNU-16; SNU-16 cells): ≤ 100 nM

Compound: C#Cc1cc(OC)c(-c2c(-c3ccc(Oc4nccc(C)n4)c(F)c3)c3c(C)ncnc3n2C)cn1 [Example 1418]
- IC50 (FGFR2): < 100 nM
- IC50 (SNU-16; [1]): ≤ 100 nM

Compound: C=C(C)C(=O)Nc1ccc(-c2c(-c3cnc(-c4ccc(OC)cc4)s3)c3c(N)ncnc3n2C)cc1 [Example 1419]
- IC50 (FGFR2): < 100 nM
- IC50 (SNU-16; [1]): ≤ 100 nM

Compound: C=C(C)C(=O)Nc1ccc(-c2c(-c3cnc(-c4cccc(OC)c4)s3)c3c(N)ncnc3n2C)cc1 [Example 1420]
- IC50 (FGFR2): 250 to 1000 nM
- IC50 (SNU-16; [1]): 250 to 1000 nM

Compound: C=C(C)C(=O)Nc1ccc(-c2c(-c3cnc(-c4cccc(F)c4)s3)c3c(N)ncnc3n2C)cc1 [Example 1421]
- IC50 (FGFR2): 250 to 1000 nM
- IC50 (SNU-16; [1]): 250 to 1000 nM

Compound: C=C(C)C(=O)Nc1ccc(-c2c(-c3cnc(-c4ccccc4C)s3)c3c(N)ncnc3n2C)cc1 [Example 1422]
- IC50 (FGFR2): 250 to 1000 nM
- IC50 (SNU-16; [1]): 250 to 1000 nM

Compound: C=C(C)C(=O)Nc1ccc(-c2c(-c3cnc(-c4cccc(C)c4)s3)c3c(N)ncnc3n2C)cc1 [Example 1423]
- IC50 (FGFR2): 250 to 1000 nM
- IC50 (SNU-16; [1]): 250 to 1000 nM

Compound: C=C(C)C(=O)Nc1ccc(-c2c(-c3cnc(-c4ccc(F)cc4)s3)c3c(N)ncnc3n2C)cc1 [Example 1424]
- IC50 (FGFR2): 100 to 250 nM
- IC50 (SNU-16; [1]): 250 to 1000 nM
